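The compound was tested at five concentrations on cells cultured in 96-well plates, with a 48-hour exposure period. The concentration for full growth arrest is given as TGI.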

The first test concerns SW-620 colon. The test can be described thus: DTP human tumour cell line panel, 48 h.
A word on the TGI: it is the concentration at which net growth stops. For the molecule `O=C1C2=C(CCC2)Nc2cccc3ncn1c23`, the TGI was more than 100 µM.
Still for that read-out and setting: then `N#Cc1c(-c2ccco2)cc(-c2ccccc2)[nH]c1=O`, with more than 100 µM.
For `O=c1[nH]c2cc([N+](=O)[O-])ccc2nc1/C(=N\Nc1ccccc1)C(O)c1ccc2c(c1)OCO2` (configuration not stated), the TGI was more than 100 µM.
Same read-out and setting: then `Cc1cccc(N(CC(=O)O)S(=O)(=O)c2ccccc2)c1`, with more than 100 µM.

A further test deals with OVCAR-5 ovarian. The test can be described thus: DTP human tumour cell line panel, 48 h.
As for `O=C1C2=C(CCC2)Nc2cccc3ncn1c23`, the TGI was more than 100 µM.
Same read-out and setting: then `N#Cc1c(-c2ccco2)cc(-c2ccccc2)[nH]c1=O`, with more than 100 µM; and `Cc1cccc(N(CC(=O)O)S(=O)(=O)c2ccccc2)c1`, with more than 100 µM.

The test system of the next test is UO-31 renal. As to the kind of experiment: DTP human tumour cell line panel, 48 h.
Turning to `O=C1C2=C(CCC2)Nc2cccc3ncn1c23`, the concentration for total growth inhibition (TGI) is more than 100 µM.
In the case of `N#Cc1c(-c2ccco2)cc(-c2ccccc2)[nH]c1=O`, the TGI was more than 100 µM.
The same measure, in the same setting: then `O=c1[nH]c2cc([N+](=O)[O-])ccc2nc1/C(=N\Nc1ccccc1)C(O)c1ccc2c(c1)OCO2` (configuration not stated), with more than 100 µM; and `Cc1cccc(N(CC(=O)O)S(=O)(=O)c2ccccc2)c1`, with more than 100 µM.

The next test has as its system MOLT-4 leukemia. The test can be described thus: DTP human tumour cell line panel, 48 h.
`O=C1C2=C(CCC2)Nc2cccc3ncn1c23`: the TGI is more than 100 µM.
Still for that read-out and setting: then `N#Cc1c(-c2ccco2)cc(-c2ccccc2)[nH]c1=O`, with more than 100 µM.
With `O=c1[nH]c2cc([N+](=O)[O-])ccc2nc1/C(=N\Nc1ccccc1)C(O)c1ccc2c(c1)OCO2` (configuration not stated), the TGI was more than 100 µM.
The same measure, in the same setting: then `Cc1cccc(N(CC(=O)O)S(=O)(=O)c2ccccc2)c1`, with more than 100 µM.

The subject of another test is SF-539 CNS. As to the kind of experiment: DTP human tumour cell line panel, 48 h.
The molecule `O=C1C2=C(CCC2)Nc2cccc3ncn1c23` showed a TGI of more than 100 µM.
Same read-out and setting: then `N#Cc1c(-c2ccco2)cc(-c2ccccc2)[nH]c1=O`, with more than 100 µM; and `O=c1[nH]c2cc([N+](=O)[O-])ccc2nc1/C(=N\Nc1ccccc1)C(O)c1ccc2c(c1)OCO2` (configuration not stated), with more than 100 µM; and `Cc1cccc(N(CC(=O)O)S(=O)(=O)c2ccccc2)c1`, with more than 100 µM.

For a further test, the system named is DMS 273 small cell lung. The test can be described thus: DTP human tumour cell line panel, 48 h.
With `O=C1C2=C(CCC2)Nc2cccc3ncn1c23`, the TGI was more than 100 µM.
The same measure, in the same setting: then `N#Cc1c(-c2ccco2)cc(-c2ccccc2)[nH]c1=O`, with more than 100 µM; and `O=c1[nH]c2cc([N+](=O)[O-])ccc2nc1/C(=N\Nc1ccccc1)C(O)c1ccc2c(c1)OCO2` (configuration not stated), with more than 100 µM; and `Cc1cccc(N(CC(=O)O)S(=O)(=O)c2ccccc2)c1`, with more than 100 µM.

The test system of another test is UACC-62 melanoma. As to the kind of experiment: DTP human tumour cell line panel, 48 h.
In turn, `O=C1C2=C(CCC2)Nc2cccc3ncn1c23` came in with a TGI of more than 100 µM.
Same read-out and setting: then `N#Cc1c(-c2ccco2)cc(-c2ccccc2)[nH]c1=O`, with more than 100 µM; and `O=c1[nH]c2cc([N+](=O)[O-])ccc2nc1/C(=N\Nc1ccccc1)C(O)c1ccc2c(c1)OCO2` (configuration not stated), with more than 100 µM; and `Cc1cccc(N(CC(=O)O)S(=O)(=O)c2ccccc2)c1`, with more than 100 µM.

Another test deals with NCI-H522 lung. The test can be described thus: DTP human tumour cell line panel, 48 h.
In turn, `O=C1C2=C(CCC2)Nc2cccc3ncn1c23` returned a TGI of more than 100 µM.
Still for that read-out and setting: then `N#Cc1c(-c2ccco2)cc(-c2ccccc2)[nH]c1=O`, with more than 100 µM; and `O=c1[nH]c2cc([N+](=O)[O-])ccc2nc1/C(=N\Nc1ccccc1)C(O)c1ccc2c(c1)OCO2` (configuration not stated), with more than 100 µM.
`Cc1cccc(N(CC(=O)O)S(=O)(=O)c2ccccc2)c1`: the TGI is more than 100 µM.

The subject of a further test is HCT-116 colon. The test can be described thus: DTP human tumour cell line panel, 48 h.
On to `O=C1C2=C(CCC2)Nc2cccc3ncn1c23`, for which the TGI was more than 100 µM.
The same measure, in the same setting: then `N#Cc1c(-c2ccco2)cc(-c2ccccc2)[nH]c1=O`, with more than 100 µM; and `O=c1[nH]c2cc([N+](=O)[O-])ccc2nc1/C(=N\Nc1ccccc1)C(O)c1ccc2c(c1)OCO2` (configuration not stated), with more than 100 µM.

A further test has as its system RPMI-8226 leukemia. As to the kind of experiment: DTP human tumour cell line panel, 48 h.
The molecule `O=C1C2=C(CCC2)Nc2cccc3ncn1c23` showed a TGI of more than 100 µM.
Same read-out and setting: then `N#Cc1c(-c2ccco2)cc(-c2ccccc2)[nH]c1=O`, with more than 100 µM.
The same measure, in the same setting: then `O=c1[nH]c2cc([N+](=O)[O-])ccc2nc1/C(=N\Nc1ccccc1)C(O)c1ccc2c(c1)OCO2` (configuration not stated), with more than 100 µM; and `Cc1cccc(N(CC(=O)O)S(=O)(=O)c2ccccc2)c1`, with more than 100 µM.

A further test deals with LOX IMVI melanoma. As to the kind of experiment: DTP human tumour cell line panel, 48 h.
`O=C1C2=C(CCC2)Nc2cccc3ncn1c23` came in with a TGI of more than 100 µM.
On the same count and under the same terms, then `N#Cc1c(-c2ccco2)cc(-c2ccccc2)[nH]c1=O`, with more than 100 µM; and `O=c1[nH]c2cc([N+](=O)[O-])ccc2nc1/C(=N\Nc1ccccc1)C(O)c1ccc2c(c1)OCO2` (configuration not stated), with more than 100 µM; and `Cc1cccc(N(CC(=O)O)S(=O)(=O)c2ccccc2)c1`, with more than 100 µM.

The subject of the next test is M19-MEL melanoma. As to the kind of experiment: DTP human tumour cell line panel, 48 h.
For `O=C1C2=C(CCC2)Nc2cccc3ncn1c23`, the total growth inhibition concentration (TGI) is more than 100 µM.
Take `N#Cc1c(-c2ccco2)cc(-c2ccccc2)[nH]c1=O`: the TGI is more than 100 µM.
On the same count and under the same terms, then `O=c1[nH]c2cc([N+](=O)[O-])ccc2nc1/C(=N\Nc1ccccc1)C(O)c1ccc2c(c1)OCO2` (configuration not stated), with more than 100 µM; and `Cc1cccc(N(CC(=O)O)S(=O)(=O)c2ccccc2)c1`, with more than 100 µM.

Another test deals with 786-0 renal. The test can be described thus: DTP human tumour cell line panel, 48 h.
Molecule `O=C1C2=C(CCC2)Nc2cccc3ncn1c23` returned a TGI of more than 100 µM.
Regarding `N#Cc1c(-c2ccco2)cc(-c2ccccc2)[nH]c1=O`, the TGI was more than 100 µM.
As to `O=c1[nH]c2cc([N+](=O)[O-])ccc2nc1/C(=N\Nc1ccccc1)C(O)c1ccc2c(c1)OCO2` (configuration not stated), the TGI was more than 100 µM.
In turn, `Cc1cccc(N(CC(=O)O)S(=O)(=O)c2ccccc2)c1` displayed a TGI of more than 100 µM.

A further test has as its system KM12 colon. The test can be described thus: DTP human tumour cell line panel, 48 h.
With `O=C1C2=C(CCC2)Nc2cccc3ncn1c23`, the TGI is more than 100 µM.
Still for that read-out and setting: then `N#Cc1c(-c2ccco2)cc(-c2ccccc2)[nH]c1=O`, with more than 100 µM.

The values are drawn from PubChem BioAssay (NCI).
